Residues, ends and D or L forms follow the SMILES beside them.
Legend:
Assay in all cases: MHC-peptide binding assay
HLA-A*6802 = HLA-A*6802 (Homo sapiens, UniProt P04439, A269V/D140Y/D185E/E176V/E277Q/E87N/F33Y/G231S/I121R/I166T/I218V/L180W/L300P/L318F/N151K/P208A/P217A/Q86R/R138H/R169H/S129P/T345S/V36M)
HLA-A*0206 = HLA-A*0206 (Homo sapiens, UniProt P04439, D140Y/D185E/D98H/E176V/E277Q/F33Y/G131W/G231S/I119V/I121R/I166T/I218V/L300P/L318F/N151K/N90K/P208A/P217A/Q86G/Q94H/R138H/R169H/T345S)
HLA-A*0202 = HLA-A*0202 (Homo sapiens, UniProt P04439, D140Y/D185E/D98H/E176V/E277Q/G131W/G231S/I119L/I121R/I166T/I218V/L180W/L300P/L318F/N151K/N90K/P208A/P217A/Q67R/Q86G/Q94H/R138H/R169H/T345S)

CC[C@H](C)[C@H](NC(=O)[C@H](Cc1ccc(O)cc1)NC(=O)[C@H](CC(=O)O)NC(=O)[C@@H](NC(=O)[C@H](CC(C)C)NC(=O)[C@@H](N)Cc1ccccc1)[C@@H](C)O)C(=O)N1CCC[C@H]1C(=O)NCC(=O)N[C@@H](C)C(=O)O [SAG3_136–144] (H-FLTDYIPGA-OH)
IC50 (HLA-A*6802): 2100 nM
IC50 (HLA-A*0206): 1.2 nM
IC50 (HLA-A*0202): 7.1 nM

CC[C@H](C)[C@H](NC(=O)[C@H](CCSC)NC(=O)[C@@H](N)Cc1ccccc1)C(=O)N[C@@H](C)C(=O)N[C@@H](Cc1ccccc1)C(=O)N[C@H](C(=O)N[C@@H](CO)C(=O)N[C@@H](CS)C(=O)N[C@@H](Cc1ccccc1)C(=O)N[C@@H](C)C(=O)O)[C@@H](C)CC [SAG2D180–189] (H-FMIAFISCFA-OH)
IC50 (HLA-A*6802): 397 nM
IC50 (HLA-A*0206): 112 nM
IC50 (HLA-A*0202): 56 nM

CC[C@H](C)[C@H](NC(=O)[C@H](CO)NC(=O)[C@@H](NC(=O)[C@@H](NC(=O)[C@H](CCSC)NC(=O)[C@@H](N)Cc1ccccc1)[C@@H](C)CC)C(C)C)C(=O)N[C@@H](CO)C(=O)N[C@@H](CC(C)C)C(=O)N[C@H](C(=O)O)C(C)C [SAG2X351–359] (H-FMIVSISLV-OH)
IC50 (HLA-A*6802): 48 nM
IC50 (HLA-A*0206): 6.2 nM
IC50 (HLA-A*0202): 1.8 nM

CC(C)C[C@H](NC(=O)CN)C(=O)N[C@@H](C)C(=O)N[C@@H](C)C(=O)N[C@@H](C)C(=O)N[C@H](C(=O)N[C@H](C(=O)N[C@@H](C)C(=O)N[C@H](C(=O)O)C(C)C)C(C)C)C(C)C [SPA82–90] (H-GLAAAVVAV-OH)
IC50 (HLA-A*6802): 263 nM
IC50 (HLA-A*0206): 55 nM

CC(C)C[C@H](NC(=O)CNC(=O)[C@H](CC(C)C)NC(=O)[C@H](CC(C)C)NC(=O)[C@@H](N)Cc1ccccc1)C(=O)N[C@@H](CC(C)C)C(=O)N[C@H](C(=O)N[C@@H](Cc1c[nH]cn1)C(=O)N[C@H](C(=O)O)C(C)C)C(C)C [SAG3_375–383] (H-FLLGLLVHV-OH)
IC50 (HLA-A*6802): 173 nM
IC50 (HLA-A*0206): 9.9 nM
IC50 (HLA-A*0202): 37 nM

CC[C@H](C)[C@H](NC(=O)[C@@H](NC(=O)[C@H](CC(C)C)NC(=O)[C@H](CC(C)C)NC(=O)[C@H](CO)NC(=O)[C@H](CC(C)C)NC(=O)[C@H](CO)NC(=O)[C@H](CC(C)C)NC(=O)[C@@H](N)Cc1ccccc1)C(C)C)C(=O)O [SAG2C38–46] (H-FLSLSLLVI-OH)
IC50 (HLA-A*6802): 9830 nM
IC50 (HLA-A*0206): > 10000 nM

CC[C@H](C)[C@H](N)C(=O)N[C@H](C(=O)N[C@@H](CCSC)C(=O)NCC(=O)N[C@@H](CO)C(=O)N[C@@H](CC(C)C)C(=O)N[C@@H](Cc1ccccc1)C(=O)N[C@@H](Cc1ccccc1)C(=O)N[C@H](C(=O)O)C(C)C)[C@@H](C)O [SPA12–20] (H-ITMGSLFFV-OH)
IC50 (HLA-A*6802): 1.1 nM
IC50 (HLA-A*0206): 0.26 nM
IC50 (HLA-A*0202): 0.64 nM

CC[C@H](C)[C@H](NC(=O)[C@@H](NC(=O)[C@@H](N)Cc1ccccc1)C(C)C)C(=O)N[C@@H](Cc1ccccc1)C(=O)N[C@@H](C)C(=O)N[C@@H](CS)C(=O)N[C@@H](CC(N)=O)C(=O)N[C@@H](Cc1ccccc1)C(=O)N[C@H](C(=O)O)C(C)C [SAG2X44–52] (H-FVIFACNFV-OH)
IC50 (HLA-A*6802): 1.2 nM
IC50 (HLA-A*0206): 5.6 nM

From publication PMC3014376 (Vaccine, 2010)
